Measured values: ChEMBL document CHEMBL6078667, “Synthesis, Biological Evaluation, and Mechanistic Insights of Rubrolide Analogues as Antitumor Agents” (J Nat Prod, 2024)
The source made the active and inactive calls. The rule behind the calls is not given here.

Key:
MCF7 [1] = assay: Cytotoxicity against human MCF7 cells assessed as survival rate at 10 uM measured after 72 hrs by MTT assay relative to control; format: functional; settings: read-out: Survival
U-87 MG = assay: Cytotoxicity against human U-87 MG cells assessed as inhibition of cell growth at 10 uM measured after 72 hrs by MTT assay relative to control; format: functional, U-87MG ATCC
MGC-803 [2] = assay: Cytotoxicity against human MGC-803 cells assessed as inhibition of cell growth at 10 uM measured after 72 hrs by MTT assay relative to control; format: functional
MCF7 [3] = assay: Cytotoxicity against human MCF7 cells assessed as inhibition of cell growth at 10 uM measured after 72 hrs by MTT assay relative to control; format: functional
HeLa [4] = assay: Cytotoxicity against human HeLa cells assessed as inhibition of cell growth at 10 uM measured after 72 hrs by MTT assay relative to control; format: functional
HCT-116 [5] = assay: Cytotoxicity against human HCT-116 cells assessed as inhibition of cell growth incubated for 72 hrs by MTT assay; format: functional, cell-based; settings: HCT-116, 72 h
MGC-803 [6] = assay: Cytotoxicity against human MGC-803 cells assessed as inhibition of cell growth incubated for 72 hrs by MTT assay; format: functional, cell-based; settings: MGC-803, 72 h
MCF7 [7] = assay: Cytotoxicity against human MCF7 cells assessed as inhibition of cell growth incubated for 72 hrs by MTT assay; format: functional, cell-based; settings: MCF7, 72 h
MKN-45 = assay: Cytotoxicity against human MKN-45 cells assessed as inhibition of cell growth incubated for 72 hrs by MTT assay; format: functional, cell-based; settings: MKN-45, 72 h
[8] = Cytotoxicity against HHL-5 cells assessed as inhibition of cell growth incubated for 72 hrs by MTT assay; format: toxicity, cell-based; settings: human
HeLa [9] = assay: Induction of apoptosis in human HeLa cells assessed as viable cells at 0.2 uM incubated for 24 hrs by Annexin V-FITC/PI staining based flow cytometric analysis (reference value: 90.6 %); format: functional; settings: read-out: Activity
HeLa [10] = assay: Induction of apoptosis in human HeLa cells assessed as late apoptotic cells at 0.2 uM incubated for 24 hrs by Annexin V-FITC/PI staining based flow cytometric analysis (reference value: 6.58 %); format: functional
HeLa [11] = assay: Induction of apoptosis in human HeLa cells assessed as viable cells at 0.4 uM incubated for 24 hrs by Annexin V-FITC/PI staining based flow cytometric analysis (reference value: 90.6 %); format: functional; settings: read-out: Activity
HeLa [12] = assay: Induction of apoptosis in human HeLa cells assessed as early apoptotic cells at 0.4 uM incubated for 24 hrs by Annexin V-FITC/PI staining based flow cytometric analysis (reference value: 2.35 %); format: functional
HeLa [13] = assay: Induction of apoptosis in human HeLa cells assessed as late apoptotic cells at 0.4 uM incubated for 24 hrs by Annexin V-FITC/PI staining based flow cytometric analysis (reference value: 6.58 %); format: functional
HeLa [14] = assay: Induction of apoptosis in human HeLa cells assessed as necrotic cells at 0.4 uM incubated for 24 hrs by Annexin V-FITC/PI staining based flow cytometric analysis (reference value: 0.44 %); format: functional
HCT-116 [15] = assay: Induction of apoptosis in human HCT-116 cells assessed as late apoptotic cells at 0.2 uM incubated for 24 hrs by Annexin V-FITC/PI staining based analysis (reference value: 0.095 %); format: functional
HCT-116 [16] = assay: Induction of apoptosis in human HCT-116 cells assessed as necrotic cells at 0.2 uM incubated for 24 hrs by Annexin V-FITC/PI staining based analysis (reference value: 0.083 %); format: functional
HCT-116 [17] = assay: Induction of apoptosis in human HCT-116 cells assessed as necrotic cells at 0.4 uM incubated for 24 hrs by Annexin V-FITC/PI staining based analysis (reference value: 0.083 %); format: functional
[18] = Drug localization in human HeLa cell mitochondria incubated for 8 hrs by Mito-tracker green dye based fluorescence microscopic analysis; format: ADME
HeLa [19] = assay: Upregulation of phosphorylated PERK expression in human HeLa cells at 0.2 to 0.4 uM measured after 48 hrs by Western blot analysis; format: functional, cell-based; settings: dose 0.2-0.4 µM
HeLa [20] = assay: Upregulation of phosphorylated eIF2alpha expression in human HeLa cells at 0.2 to 0.4 uM measured after 48 hrs by Western blot analysis; format: functional, cell-based; settings: dose 0.2-0.4 µM
HeLa [21] = assay: Upregulation of CHOP expression in human HeLa cells at 0.2 to 0.4 uM measured after 48 hrs by Western blot analysis; format: functional, cell-based; settings: dose 0.2-0.4 µM
HCT-116 [22] = assay: Upregulation of phosphorylated PERK expression in human HCT-116 cells at 0.2 to 0.4 uM measured after 48 hrs by Western blot analysis; format: functional, cell-based; settings: dose 0.2-0.4 µM
HeLa [23] = assay: Induction of ROS production in human HeLa cells at 0.2 to 0.4 uM incubated for 24 hrs by DCFH-DA probe based flow cytometric analysis; format: functional, cell-based; settings: dose 0.2-0.4 µM
HCT-116 [24] = assay: Induction of ROS production in human HCT-116 cells at 0.2 to 0.4 uM incubated for 24 hrs by DCFH-DA probe based flow cytometric analysis; format: functional, cell-based; settings: dose 0.2-0.4 µM
HeLa [25] = assay: Induction of ROS production in human HeLa cells assessed as fold change at 0.2 to 0.4 uM incubated for 24 hrs by DCFH-DA probe based flow cytometric analysis; format: functional; settings: dose 0.2-0.4 µM
HCT-116 [26] = assay: Induction of ROS production in human HCT-116 cells assessed as fold change at 0.2 to 0.4 uM incubated for 24 hrs by DCFH-DA probe based flow cytometric analysis; format: functional; settings: dose 0.2-0.4 µM
HeLa [27] = assay: Cell cycle arrest in human HeLa cells assessed as accumulation of cells at G0/G1 phase at 0.2 uM measured after 24 hrs by PI staining based flow cytometric analysis (reference value: 54.7 %); format: functional
HeLa [28] = assay: Cell cycle arrest in human HeLa cells assessed as accumulation of cells at G2/M phase at 0.2 uM measured after 24 hrs by PI staining based flow cytometric analysis (reference value: 22.8 %); format: functional
HeLa [29] = assay: Cell cycle arrest in human HeLa cells assessed as accumulation of cells at G2/M phase at 0.4 uM measured after 24 hrs by PI staining based flow cytometric analysis (reference value: 22.8 %); format: functional
HCT-116 [30] = assay: Cell cycle arrest in human HCT-116 cells assessed as accumulation of cells at G0/G1 phase at 0.4 uM measured after 24 hrs by PI staining based flow cytometric analysis (reference value: 51.3 %); format: functional
HeLa [31] = assay: Cell cycle arrest in human HeLa cells assessed as increase in cyclin B1 expression at 0.2 to 0.4 uM incubated for 24 hrs by Western blot analysis; format: functional, cell-based; settings: dose 0.2-0.4 µM
HeLa [32] = assay: Antitumor activity against human HeLa cells xenografted in female BALB/c nude mouse assessed as reduction in tumor cell weight at 20 mg/kg, ip administered as liposome formulation once daily for 13 days relative to control; format: functional; parameters: scale not given: the % may be the effect or the level left; settings: time 13 day
[33] = Toxicity in female BALB/c nude mouse xenografted with human HeLa cells assessed as animal survival at 20 mg/kg, ip administered as liposome formulation once daily for 13 days; format: organism-based; settings: in vivo, 312 h, time 13 day
[34] = Toxicity in female BALB/c nude mouse xenografted with human HeLa cells assessed as body weight loss at 5 to 20 mg/kg, ip administered as liposome formulation once daily for 13 days; format: organism-based; settings: in vivo, 312 h, dose 5-20 mg/kg, time 13 day

## COc1ccc(C2=CC(=O)O/C2=C\c2ccc(O)cc2)cc1
MCF7 [1]
  viability at 10 µM: 24.8%
U-87 MG
  inhibition at 10 µM: > 50%
MGC-803 [2]
  inhibition at 10 µM: > 50%
MCF7 [3]
  inhibition at 10 µM: > 50%
HeLa [4]
  inhibition at 10 µM: > 50%
HCT-116 [5]
  IC50: 200 nM
MGC-803 [6]
  IC50: 1100 nM
MCF7 [7]
  IC50: 1000 nM
MKN-45
  IC50: 200 nM
[8]
  IC50 at 72 h: 6300 nM
HeLa [9]
  viability at 0.2 µM: 83.2%
HeLa [10]
  Activity: 11.5%
HeLa [11]
  viability at 0.4 µM: 47.9%
HeLa [12]
  Activity: 10.5%
HeLa [13]
  Activity: 40.6%
HeLa [14]
  Activity: 1%
HCT-116 [15]
  Activity: 7.71%
HCT-116 [16]
  Activity: 5.89%
HCT-116 [17]
  Activity: 7.38%
[18]
  Drug uptake: Not_active
HeLa [19]
  Activity: Active; Compound Impacts Endoplasmic Reticulum Stress Related Perk-Eif2Alpha-Chop Signalling Pathway
HeLa [20]
  Activity: Active; Compound Impacts Endoplasmic Reticulum Stress Related Perk-Eif2Alpha-Chop Signalling Pathway
HeLa [21]
  Activity: Active; Compound Impacts Endoplasmic Reticulum Stress Related Perk-Eif2Alpha-Chop Signalling Pathway
HCT-116 [22]
  Activity: Active; Compound Impacts Endoplasmic Reticulum Stress Related Perk-Eif2Alpha-Chop Signalling Pathway
HeLa [23]
  Activity: Active
HCT-116 [24]
  Activity: Active
HeLa [25]
  fold change (FC): >4
HCT-116 [26]
  fold change (FC): >4
HeLa [27]
  Activity: 18.8%
HeLa [28]
  Activity: 58.6%
HeLa [29]
  Activity: 71.1%
HCT-116 [30]
  Activity: 23.2%
HeLa [31]
  Activity: Active
HeLa [32]
  Activity: 50%
[33]
  Activity: Non-toxic
[34]
  Activity: Non-toxic
